Where “and” joins values, the source holds several entries; their conditions need not be identical. Equal values may be shown once.
Legend:
Type in all cases: biochemical
[1] = molecular target: T1, human plasmin (Homo sapiens, UniProt P00747); test: Direct inhibition of human plasmin, chromogenic substrate; conditions: for HS (Hill slope): Tris-HCl buffer pH 7.4, 37 °C
[2] = molecular target: T1, human plasmin; test: Michaelis-Menten kinetics of Spectrozyme PL hydrolysis by human plasmin
[3] = molecular target: T1, human plasmin; test: Protamine reversibility of plasmin inhibition by NSGM 2; conditions: plasmin treated with inhibitor 2 (200 μM), pH 7.4, 37 °C

T1 sequence (P00747 97-580 limits assumed): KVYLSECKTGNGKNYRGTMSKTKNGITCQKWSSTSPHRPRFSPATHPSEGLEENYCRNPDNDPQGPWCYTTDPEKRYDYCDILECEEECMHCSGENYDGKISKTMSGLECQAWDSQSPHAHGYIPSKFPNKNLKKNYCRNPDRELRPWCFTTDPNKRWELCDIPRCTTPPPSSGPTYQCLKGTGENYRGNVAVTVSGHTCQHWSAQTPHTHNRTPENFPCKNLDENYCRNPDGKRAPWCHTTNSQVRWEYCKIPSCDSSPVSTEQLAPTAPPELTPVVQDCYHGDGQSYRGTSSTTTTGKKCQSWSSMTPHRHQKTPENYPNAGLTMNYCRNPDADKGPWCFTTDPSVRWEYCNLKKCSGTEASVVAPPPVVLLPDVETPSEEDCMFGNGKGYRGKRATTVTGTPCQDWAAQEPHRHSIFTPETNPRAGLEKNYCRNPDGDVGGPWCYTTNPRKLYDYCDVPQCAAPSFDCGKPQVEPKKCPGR
T1 sequence (P00747 581-810 limits assumed): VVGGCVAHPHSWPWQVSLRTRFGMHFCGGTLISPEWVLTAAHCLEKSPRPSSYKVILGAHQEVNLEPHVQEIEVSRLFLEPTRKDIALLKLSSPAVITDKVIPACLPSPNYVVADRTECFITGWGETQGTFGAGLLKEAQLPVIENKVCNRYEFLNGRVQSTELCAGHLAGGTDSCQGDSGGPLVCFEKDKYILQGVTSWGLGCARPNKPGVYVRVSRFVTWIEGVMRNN

| Molecule | HS (Hill slope) [1] | further results |
| --- | --- | --- |
| O=c1c(OS(=O)(=O)[O-])c(-c2ccc(OS(=O)(=O)[O-])c(OS(=O)(=O)[O-])c2)oc2cc(OS(=O)(=O)[O-])cc(OCc3ccc(COc4cc(OS(=O)(=O)[O-])cc5oc(-c6ccc(OS(=O)(=O)[O-])c(OS(=O)(=O)[O-])c6)c(OS(=O)(=O)[O-])c(=O)c45)cc3)c12.[Na+].[Na+].[Na+].[Na+].[Na+].[Na+].[Na+].[Na+] | 0.7 ± 0.1 | VMAX ([2]; [inhibitor] 1.6 μM, pH 7.4, 37 °C): 36.3 ± 2.0 mAU/min; VMAX ([2]; [inhibitor] 8 μM): 29.0 ± 0.6 mAU/min; VMAX ([2]; [inhibitor] 100 μM): 15.1 ± 1.0 mAU/min; VMAX ([2]; [inhibitor] 200 μM, listed as 2): 10.4 mAU/min and 10.4 ± 0.5 mAU/min |
| O=c1c(O)c(-c2ccc(O)c(O)c2)oc2cc(O)cc(OCc3ccc(COc4cc(O)cc5oc(-c6ccc(O)c(O)c6)c(O)c(=O)c45)cc3)c12 [1j, 5,5′-((1,4-Phenylenebis(methylene))bis(oxy))bis(2-(3,4-dihydroxyphenyl)-3,7-dihydroxy-4H-chromen-4-one)] | – | fold less potent plasmin inhibition than NSGM 2 ([1]; 1j versus 2): about 18.3 fold; VMAX ([2]; [inhibitor] 100 μM): 51.0 ± 4.6 mAU/min; VMAX ([2]; [inhibitor] 240 μM): 51.7 ± 3.9 mAU/min; VMAX ([2]; [inhibitor] 400 μM): 51.3 ± 4.0 mAU/min; mechanism of plasmin inhibition ([2]; from Michaelis-Menten kinetics): competitive; fold increase in KM ([2]; inhibitor concentration reaching 400 μM): ~ 13.5 fold; VMAX across inhibitor concentrations ([2]; inhibitor concentration reaching 400 μM, essentially unchanged): 50.6–51.3 mAU/min |
| O=c1c(OS(=O)(=O)[O-])c(-c2ccc(OS(=O)(=O)[O-])c(OS(=O)(=O)[O-])c2)oc2cc(OS(=O)(=O)[O-])cc(OCCCCOc3cc(OS(=O)(=O)[O-])cc4oc(-c5ccc(OS(=O)(=O)[O-])c(OS(=O)(=O)[O-])c5)c(OS(=O)(=O)[O-])c(=O)c34)c12.[Na+].[Na+].[Na+].[Na+].[Na+].[Na+].[Na+].[Na+] [NSGM 1] | 1.0 ± 0.2 | – |
| O=c1c(OS(=O)(=O)[O-])c(-c2ccc(OS(=O)(=O)[O-])c(OS(=O)(=O)[O-])c2)oc2cc(OS(=O)(=O)[O-])cc(OCc3ccc(-c4ccc(COc5cc(OS(=O)(=O)[O-])cc6oc(-c7ccc(OS(=O)(=O)[O-])c(OS(=O)(=O)[O-])c7)c(OS(=O)(=O)[O-])c(=O)c56)cc4)cc3)c12.[Na+].[Na+].[Na+].[Na+].[Na+].[Na+].[Na+].[Na+] [NSGM 3, Sodium 4-(5-((4′-(((2-(3,4-Bis(sulfonatooxy)phenyl)-4-oxo-3,7-bis(sulfonatooxy)-4H-chromen-5-yl)oxy)methyl)-[1,1′-bi-phenyl]-4-yl)methoxy)-4-oxo-3,7-bis(sulfonatooxy)-4H-chromen-2-yl)-1,2-phenylene Bis(sulfate)] | 0.8 ± 0.2 | – |
| Cc1cc(COc2cc(OS(=O)(=O)[O-])cc3oc(-c4ccc(OS(=O)(=O)[O-])c(OS(=O)(=O)[O-])c4)c(OS(=O)(=O)[O-])c(=O)c23)c(C)cc1COc1cc(OS(=O)(=O)[O-])cc2oc(-c3ccc(OS(=O)(=O)[O-])c(OS(=O)(=O)[O-])c3)c(OS(=O)(=O)[O-])c(=O)c12.[Na+].[Na+].[Na+].[Na+].[Na+].[Na+].[Na+].[Na+] [NSGM 4, Sodium 4-(5-((4-(((2-(3,4-Bis(sulfonatooxy)phenyl)-4-oxo-3,7-bis(sulfonatooxy)-4H-chromen-5-yl)oxy)methyl)-2,5-dimethylbenzyl)oxy)-4-oxo-3,7-bis(sulfonatooxy)-4H-chromen-2-yl)-1,2-phenylene Bis(sulfate)] | 0.7 ± 0.1 | – |
| O=c1c(OS(=O)(=O)[O-])c(-c2ccc(OS(=O)(=O)[O-])c(OS(=O)(=O)[O-])c2)oc2cc(OS(=O)(=O)[O-])cc(OCc3cccc(COc4cc(OS(=O)(=O)[O-])cc5oc(-c6ccc(OS(=O)(=O)[O-])c(OS(=O)(=O)[O-])c6)c(OS(=O)(=O)[O-])c(=O)c45)c3)c12.[Na+].[Na+].[Na+].[Na+].[Na+].[Na+].[Na+].[Na+] [NSGM 5, Sodium 4-(5-((3-(((2-(3,4-Bis(sulfonatooxy)phenyl)-4-oxo-3,7-bis(sulfonatooxy)-4H-chromen-5-yl)oxy)methyl)benzyl)-oxy)-4-oxo-3,7-bis(sulfonatooxy)-4H-chromen-2-yl)-1,2-phenylene Bis(sulfate)] | 0.6 ± 0.1 | – |
| O=c1c(OS(=O)(=O)[O-])c(-c2ccc(OS(=O)(=O)[O-])c(OS(=O)(=O)[O-])c2)oc2cc(OS(=O)(=O)[O-])cc(OCc3cccc(COc4cc(OS(=O)(=O)[O-])cc5oc(-c6ccc(OS(=O)(=O)[O-])c(OS(=O)(=O)[O-])c6)c(OS(=O)(=O)[O-])c(=O)c45)n3)c12.[Na+].[Na+].[Na+].[Na+].[Na+].[Na+].[Na+].[Na+] [NSGM 6, Sodium 4-(5-((6-(((2-(3,4-Bis(sulfonatooxy)phenyl)-4-oxo-3,7-bis(sulfonatooxy)-4H-chromen-5-yl)oxy)methyl)pyridin-2-yl)methoxy)-4-oxo-3,7-bis(sulfonatooxy)-4H-chromen-2-yl)-1,2-phenylene Bis(sulfate)] | 0.8 ± 0.2 | – |
| O=c1cc(-c2ccc(OS(=O)(=O)[O-])cc2)oc2cc(OS(=O)(=O)[O-])cc(OCCOc3cc(OS(=O)(=O)[O-])cc4oc(-c5ccc(OS(=O)(=O)[O-])cc5)cc(=O)c34)c12.[Na+].[Na+].[Na+].[Na+] [NSGM 7, Sodium 4-Oxo-5-(2-((4-oxo-7-(sulfonatooxy)-2-(4-(sulfonatooxy)phenyl)-4H-chromen-5-yl)oxy)ethoxy)-2-(4-(sulfonatooxy)phenyl)-4H-chromen-7-yl Sulfate] | 2.4 ± 0.3 | – |
| O=c1cc(-c2ccc(OS(=O)(=O)[O-])cc2)oc2cc(OS(=O)(=O)[O-])cc(OCCCCOc3cc(OS(=O)(=O)[O-])cc4oc(-c5ccc(OS(=O)(=O)[O-])cc5)cc(=O)c34)c12.[Na+].[Na+].[Na+].[Na+] [NSGM 9, Sodium 4-Oxo-5-(4-((4-oxo-7-(sulfonatooxy)-2-(4-(sulfonatooxy)phenyl)-4H-chromen-5-yl)oxy)butoxy)-2-(4-(sulfonatooxy)phenyl)-4H-chromen-7-yl Sulfate] | 1.8 ± 0.3 | – |
| O=c1cc(-c2ccc(OS(=O)(=O)[O-])cc2)oc2cc(OS(=O)(=O)[O-])cc(OC/C=C/COc3cc(OS(=O)(=O)[O-])cc4oc(-c5ccc(OS(=O)(=O)[O-])cc5)cc(=O)c34)c12.[Na+].[Na+].[Na+].[Na+] [NSGM 10, Sodium (E)-4-Oxo-5-((4-((4-oxo-7-(sulfonatooxy)-2-(4-(sulfonatooxy)phenyl)-4H-chromen-5-yl)oxy)but-2-en-1-yl)-oxy)-2-(4-(sulfonatooxy)phenyl)-4H-chromen-7-yl Sulfate] | 0.9 ± 0.2 | – |
| O=c1cc(-c2ccc(OS(=O)(=O)[O-])cc2)oc2cc(OS(=O)(=O)[O-])cc(OCc3ccc(COc4cc(OS(=O)(=O)[O-])cc5oc(-c6ccc(OS(=O)(=O)[O-])cc6)cc(=O)c45)cc3)c12.[Na+].[Na+].[Na+].[Na+] [NSGM 11, Sodium 4-Oxo-5-((4-(((4-oxo-7-(sulfonatooxy)-2-(4-(sulfonatooxy)phenyl)-4H-chromen-5-yl)oxy)methyl)benzyl)-oxy)-2-(4-(sulfonatooxy)phenyl)-4H-chromen-7-yl Sulfate] | 2.4 ± 0.3 | – |
| O=c1cc(-c2ccc(OS(=O)(=O)[O-])cc2)oc2cc(OS(=O)(=O)[O-])cc(OCc3ccc(-c4ccc(COc5cc(OS(=O)(=O)[O-])cc6oc(-c7ccc(OS(=O)(=O)[O-])cc7)cc(=O)c56)cc4)cc3)c12.[Na+].[Na+].[Na+].[Na+] [NSGM 12, Sodium 4-Oxo-5-((4′-(((4-oxo-7-(sulfonatooxy)-2-(4-(sulfonatooxy)phenyl)-4H-chromen-5-yl)oxy)methyl)-[1,1′-bi-phenyl]-4-yl)methoxy)-2-(4-(sulfonatooxy)phenyl)-4H-chromen-7-yl Sulfate] | 1.1 ± 0.1 | – |
| Cc1cc(COc2cc(OS(=O)(=O)[O-])cc3oc(-c4ccc(OS(=O)(=O)[O-])cc4)cc(=O)c23)c(C)cc1COc1cc(OS(=O)(=O)[O-])cc2oc(-c3ccc(OS(=O)(=O)[O-])cc3)cc(=O)c12.[Na+].[Na+].[Na+].[Na+] [NSGM 13, Sodium 5-((2,5-Dimethyl-4-(((4-oxo-7-(sulfonatooxy)-2-(4-(sulfonatooxy)phenyl)-4H-chromen-5-yl)oxy)methyl)benzyl)-oxy)-4-oxo-2-(4-(sulfonatooxy)phenyl)-4H-chromen-7-yl Sulfate] | 2.0 ± 0.1 | – |
| O=c1cc(-c2ccc(OS(=O)(=O)[O-])cc2)oc2cc(OS(=O)(=O)[O-])cc(OCc3cccc(COc4cc(OS(=O)(=O)[O-])cc5oc(-c6ccc(OS(=O)(=O)[O-])cc6)cc(=O)c45)c3)c12.[Na+].[Na+].[Na+].[Na+] [NSGM 14, Sodium 4-Oxo-5-((3-(((4-oxo-7-(sulfonatooxy)-2-(4-(sulfonatooxy)phenyl)-4H-chromen-5-yl)oxy)methyl)benzyl)-oxy)-2-(4-(sulfonatooxy)phenyl)-4H-chromen-7-yl Sulfate] | 2.3 ± 0.5 | – |
| O=c1cc(-c2ccc(OS(=O)(=O)[O-])cc2)oc2cc(OS(=O)(=O)[O-])cc(OCc3cccc(COc4cc(OS(=O)(=O)[O-])cc5oc(-c6ccc(OS(=O)(=O)[O-])cc6)cc(=O)c45)n3)c12.[Na+].[Na+].[Na+].[Na+] [NSGM 15, Sodium 4-Oxo-5-((6-(((4-oxo-7-(sulfonatooxy)-2-(4-(sulfonatooxy)phenyl)-4H-chromen-5-yl)oxy)methyl)pyridin-2-yl)methoxy)-2-(4-(sulfonatooxy)phenyl)-4H-chromen-7-yl Sulfate] | 1.2 ± 0.2 | – |
| O=c1cc(-c2ccc(OS(=O)(=O)[O-])cc2)oc2cc(OS(=O)(=O)[O-])cc(OCc3ccc(COc4cc(OS(=O)(=O)[O-])cc5oc(-c6ccc(OS(=O)(=O)[O-])c(OS(=O)(=O)[O-])c6)c(OS(=O)(=O)[O-])c(=O)c45)cc3)c12.[Na+].[Na+].[Na+].[Na+].[Na+].[Na+] [NSGM 16, Sodium 4-(4-Oxo-5-((4-(((4-oxo-7-(sulfonatooxy)-2-(4-(sulfonatooxy)phenyl)-4H-chromen-5-yl)oxy)methyl)benzyl)-oxy)-3,7-bis(sulfonatooxy)-4H-chromen-2-yl)-1,2-phenylene Bis(sulfate)] | 0.9 ± 0.1 | – |
| protamine | – | efficacy of restoring plasmin activity [3]: ~ 100% |

— article PMC8788145 (Journal of medicinal chemistry, 2017)
